Data from US4946779A, “Pseudo-aminosugars, their production and use” (Takeda Chemical Industries, Ltd., priority 1981, dated 1990).

Columns and labels:
rats = test: Toxicity, LD50 in rats; assay type: in vivo
[1] = biological target: maltase prepared from porcine intestinal mucosa; test: maltase inhibitory activity, maltose as substrate; assay type: biochemical; settings: substrate 0.05 M maltose, read-out: IC50 (M), concentration of 50% inhibition
Description: (§1) The inhibitory activities of the compounds of this invention against α-glucosidase (yeast, type I, produced by Sigma Chemical Co.,U.S.A.)as well as maltase and saccharase prepared from porcine intestinal mucosa (prepared in accordance with the procedure as described by B. Borgstroom and A. Dahlgvist in Acta Chem. Scand.; 12, 1997-2006, (1958)), when maltose and sucrose are used as a substrate, are determined by adding to 0.25 ml of a solution of an enzyme prepared by diluting suitably with 0.02 M phosphate buffer (pH 6.8) 0.5 ml of a solution of an inhibitory substance to be tested in the same buffer and 0.25 ml of 0.05 M maltose or 0.05 M sucrose as the substrate in the same buffer allowing the mixture to react at 37° C. for 10 minutes, then adding 3 ml of Glucose B-Test Reagent (a glucose oxidase reagent for measurement of glucose, produced by Wako Pure Chemical Co., Japan), further warming the mixture at 37° C. for 20 minutes and measuring the absorbance of the reaction solution at 505 nm.

Solubility in solvents = assay type: physicochemical
[2] = biological target: T1, saccharase prepared from porcine intestinal mucosa (Sus scrofa, UniProt P56729); test: saccharase inhibitory activity, sucrose as substrate; assay type: biochemical; settings: substrate 0.05 M sucrose, read-out: IC50 (M), concentration of 50% inhibition
T1 construct: sucrase is the C-terminal subunit cleaved from the SI precursor, paired with isomaltase
Description: as §1

[3] = in ethanol, ethyl acetate, chloroform, acetone
[4] = in water, dimethylsulfoxide, methanol

T1 sequence (P56729 with tags, fused parts or gaps): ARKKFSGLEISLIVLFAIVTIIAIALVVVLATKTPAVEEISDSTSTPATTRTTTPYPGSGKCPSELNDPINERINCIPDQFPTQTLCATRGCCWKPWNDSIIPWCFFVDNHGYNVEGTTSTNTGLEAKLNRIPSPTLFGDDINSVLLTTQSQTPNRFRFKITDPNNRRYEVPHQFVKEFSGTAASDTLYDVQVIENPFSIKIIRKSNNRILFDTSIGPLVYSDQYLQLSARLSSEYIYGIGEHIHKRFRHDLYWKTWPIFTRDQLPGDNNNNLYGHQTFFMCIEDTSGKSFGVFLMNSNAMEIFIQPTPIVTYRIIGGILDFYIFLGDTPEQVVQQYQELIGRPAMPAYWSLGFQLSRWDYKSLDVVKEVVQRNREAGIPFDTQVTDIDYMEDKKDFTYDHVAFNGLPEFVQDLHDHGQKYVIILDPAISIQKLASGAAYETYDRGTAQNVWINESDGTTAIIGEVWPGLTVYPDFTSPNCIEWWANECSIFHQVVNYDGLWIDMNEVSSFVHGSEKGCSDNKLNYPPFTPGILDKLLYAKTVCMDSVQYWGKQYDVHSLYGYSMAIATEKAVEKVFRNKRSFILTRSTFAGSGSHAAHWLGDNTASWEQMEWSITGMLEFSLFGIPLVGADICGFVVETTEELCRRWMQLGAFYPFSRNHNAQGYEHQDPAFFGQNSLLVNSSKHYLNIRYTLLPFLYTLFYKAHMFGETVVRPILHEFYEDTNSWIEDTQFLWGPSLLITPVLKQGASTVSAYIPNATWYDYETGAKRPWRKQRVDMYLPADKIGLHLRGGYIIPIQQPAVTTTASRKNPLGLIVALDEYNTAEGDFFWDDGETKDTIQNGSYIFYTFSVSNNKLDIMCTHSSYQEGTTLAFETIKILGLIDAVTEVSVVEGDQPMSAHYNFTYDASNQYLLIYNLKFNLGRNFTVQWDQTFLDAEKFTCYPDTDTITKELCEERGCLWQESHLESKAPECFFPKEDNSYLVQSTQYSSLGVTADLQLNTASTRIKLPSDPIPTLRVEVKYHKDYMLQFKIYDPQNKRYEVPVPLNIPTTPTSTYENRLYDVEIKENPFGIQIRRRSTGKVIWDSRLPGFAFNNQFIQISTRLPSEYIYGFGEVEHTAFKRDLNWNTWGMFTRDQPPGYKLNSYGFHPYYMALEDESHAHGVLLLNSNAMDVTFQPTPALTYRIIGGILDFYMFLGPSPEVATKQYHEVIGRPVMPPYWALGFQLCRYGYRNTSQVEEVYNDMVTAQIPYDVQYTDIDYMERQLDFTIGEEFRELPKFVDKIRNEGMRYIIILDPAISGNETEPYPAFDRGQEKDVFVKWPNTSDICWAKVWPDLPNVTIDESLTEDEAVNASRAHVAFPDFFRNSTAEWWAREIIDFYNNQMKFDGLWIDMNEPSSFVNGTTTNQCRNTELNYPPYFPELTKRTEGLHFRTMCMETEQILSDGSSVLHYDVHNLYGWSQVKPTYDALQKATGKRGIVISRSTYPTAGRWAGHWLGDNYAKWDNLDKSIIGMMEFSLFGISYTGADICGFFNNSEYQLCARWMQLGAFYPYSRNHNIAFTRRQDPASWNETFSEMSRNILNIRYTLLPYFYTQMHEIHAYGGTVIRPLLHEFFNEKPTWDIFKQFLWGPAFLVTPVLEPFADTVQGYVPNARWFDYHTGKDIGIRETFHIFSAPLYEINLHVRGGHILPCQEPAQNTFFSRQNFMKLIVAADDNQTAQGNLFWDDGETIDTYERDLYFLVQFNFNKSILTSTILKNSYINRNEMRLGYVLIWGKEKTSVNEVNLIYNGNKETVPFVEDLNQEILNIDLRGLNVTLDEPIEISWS

Structure (SMILES) | LD50 (rats) [mg] | IC50 [1] [M] | Solubility (Solubility in solvents; [3]) | Solubility (Solubility in solvents; [4]) | IC50 [2] [M]
NC1CC(O)(CO)C(O)C(O)C1O (centres unmarked) [compound [I], 5-amino-1-hydroxymethyl-1,2,3,4-cyclohexanetetrol] | ≥ 500 | – | – | – | –
N[C@H]1C[C@](O)(CO)C(O)C(O)C1O (some centres unmarked) [epivaliolamine] | – | 0.00014 | Sparing soluble or insoluble | Soluble | –
N[C@H]1C[C@](O)(CO)[C@@H](O)[C@H](O)[C@H]1O [valiolamine, 1L(1S)-(1(OH), 2,4,5/1(CH2 OH),3)-5-amino-1-hydroxymethyl-1,2,3,4-cyclohexanetetrol] | – | 2.2e-06 | Sparingly soluble or insoluble | Soluble | 4.9e-08
